Data set [1] is described as follows: Plasma clearance determined. To be noted: read-out: Clp. It is filed as ADME, organism-based.
Data set [2] deals with T1, Integrin alpha-4/beta-1 (Homo sapiens, UniProt P05556+P13612). Nature of the data set: Inhibition of alpha4-beta1 (very late) antigen binding with VCAM-1 immunoglobulin plus 5% human plasma. The data set is classed as cell-free.
The nature of data set [3]: Oral bioavailability. It is filed as ADME, organism-based. Conditions: eutheria, in vivo.
Data set [4] concerns the target T1, Integrin alpha-4/beta-1. Nature of the data set: Inhibition of alpha4-beta1 (very late) antigen binding with VCAM-1 immunoglobulin. The data set is classed as protein-complex assay.
Data set [5] deals with Integrin alpha-4/beta-7 (Homo sapiens) (UniProt P13612+P26010). Nature of the data set: Selectivity for alpha4-beta7 to that of alpha4-beta1. The data set is classed as protein-complex assay.
For data set [6], the target named is T2, Integrin alpha-4/beta-7 (Homo sapiens, UniProt P13612+P26010).
T2 sequence (P13612 whole entry): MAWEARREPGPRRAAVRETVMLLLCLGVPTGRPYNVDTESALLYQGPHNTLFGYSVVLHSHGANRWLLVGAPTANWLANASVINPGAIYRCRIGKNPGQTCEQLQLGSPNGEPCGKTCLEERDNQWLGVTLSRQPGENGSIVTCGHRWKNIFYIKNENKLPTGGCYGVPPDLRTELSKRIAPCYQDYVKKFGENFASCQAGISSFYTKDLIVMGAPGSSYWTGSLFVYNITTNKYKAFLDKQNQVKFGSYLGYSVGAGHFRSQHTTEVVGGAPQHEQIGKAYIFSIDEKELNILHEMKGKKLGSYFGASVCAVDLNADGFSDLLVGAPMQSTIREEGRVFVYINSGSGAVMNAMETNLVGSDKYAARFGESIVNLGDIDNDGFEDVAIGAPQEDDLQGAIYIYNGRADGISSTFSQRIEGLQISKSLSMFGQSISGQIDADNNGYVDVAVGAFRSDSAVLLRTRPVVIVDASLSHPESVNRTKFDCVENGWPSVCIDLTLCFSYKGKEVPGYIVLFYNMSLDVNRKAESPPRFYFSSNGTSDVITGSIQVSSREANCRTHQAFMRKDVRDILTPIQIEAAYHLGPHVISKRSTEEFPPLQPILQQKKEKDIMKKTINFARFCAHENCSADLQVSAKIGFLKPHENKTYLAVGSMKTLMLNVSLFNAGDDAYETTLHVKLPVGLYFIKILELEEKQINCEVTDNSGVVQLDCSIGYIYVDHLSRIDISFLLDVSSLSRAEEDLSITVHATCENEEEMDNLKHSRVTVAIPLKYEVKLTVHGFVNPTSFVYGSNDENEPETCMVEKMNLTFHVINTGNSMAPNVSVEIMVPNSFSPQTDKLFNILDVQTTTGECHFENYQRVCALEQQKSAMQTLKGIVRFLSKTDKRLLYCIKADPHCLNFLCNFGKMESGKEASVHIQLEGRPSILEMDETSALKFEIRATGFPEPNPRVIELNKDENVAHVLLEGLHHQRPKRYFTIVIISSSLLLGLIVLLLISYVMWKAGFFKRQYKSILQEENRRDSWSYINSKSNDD
T2 sequence (P26010 whole entry): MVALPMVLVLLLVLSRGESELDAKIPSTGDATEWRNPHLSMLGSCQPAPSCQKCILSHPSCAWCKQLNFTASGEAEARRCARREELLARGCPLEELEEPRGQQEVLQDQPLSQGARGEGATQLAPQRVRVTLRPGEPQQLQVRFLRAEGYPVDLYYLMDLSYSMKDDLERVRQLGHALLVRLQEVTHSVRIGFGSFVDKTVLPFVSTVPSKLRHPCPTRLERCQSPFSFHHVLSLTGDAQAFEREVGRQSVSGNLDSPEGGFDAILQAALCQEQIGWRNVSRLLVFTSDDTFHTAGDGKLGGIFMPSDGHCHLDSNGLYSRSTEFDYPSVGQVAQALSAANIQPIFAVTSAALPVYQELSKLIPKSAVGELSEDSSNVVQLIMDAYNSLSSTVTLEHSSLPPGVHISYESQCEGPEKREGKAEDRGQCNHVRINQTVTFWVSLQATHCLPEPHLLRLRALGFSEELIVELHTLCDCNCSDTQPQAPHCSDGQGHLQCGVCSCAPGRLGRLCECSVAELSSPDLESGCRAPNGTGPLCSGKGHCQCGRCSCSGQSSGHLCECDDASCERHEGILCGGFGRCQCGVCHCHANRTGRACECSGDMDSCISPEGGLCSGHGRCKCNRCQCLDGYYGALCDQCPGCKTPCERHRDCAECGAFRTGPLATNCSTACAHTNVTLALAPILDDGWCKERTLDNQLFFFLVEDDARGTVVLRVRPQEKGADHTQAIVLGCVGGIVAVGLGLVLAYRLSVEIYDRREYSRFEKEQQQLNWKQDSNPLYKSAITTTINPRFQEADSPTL
In words: Inhibition of alpha4-beta7 antigen with MAdCAM immunoglobulin. It is filed as protein-complex assay.

Data set [7] is described as follows: Selectivity for alpha4-beta7 over alpha4-beta1 integrins.
The target in data set [8] is T2, Integrin alpha-4/beta-7. In words: Inhibition of alpha4-beta7 integrin binding to MAdCAM immunoglobulin. The data set is classed as protein-complex assay.

The text below walks through data of ChEMBL document CHEMBL1135130, “Substituted tetrahydrofuroyl-1-phenylalanine derivatives as potent and specific VLA-4 antagonists” (Bioorg Med Chem Lett, 2002).

T1 sequence (P05556 whole entry, one chain of several): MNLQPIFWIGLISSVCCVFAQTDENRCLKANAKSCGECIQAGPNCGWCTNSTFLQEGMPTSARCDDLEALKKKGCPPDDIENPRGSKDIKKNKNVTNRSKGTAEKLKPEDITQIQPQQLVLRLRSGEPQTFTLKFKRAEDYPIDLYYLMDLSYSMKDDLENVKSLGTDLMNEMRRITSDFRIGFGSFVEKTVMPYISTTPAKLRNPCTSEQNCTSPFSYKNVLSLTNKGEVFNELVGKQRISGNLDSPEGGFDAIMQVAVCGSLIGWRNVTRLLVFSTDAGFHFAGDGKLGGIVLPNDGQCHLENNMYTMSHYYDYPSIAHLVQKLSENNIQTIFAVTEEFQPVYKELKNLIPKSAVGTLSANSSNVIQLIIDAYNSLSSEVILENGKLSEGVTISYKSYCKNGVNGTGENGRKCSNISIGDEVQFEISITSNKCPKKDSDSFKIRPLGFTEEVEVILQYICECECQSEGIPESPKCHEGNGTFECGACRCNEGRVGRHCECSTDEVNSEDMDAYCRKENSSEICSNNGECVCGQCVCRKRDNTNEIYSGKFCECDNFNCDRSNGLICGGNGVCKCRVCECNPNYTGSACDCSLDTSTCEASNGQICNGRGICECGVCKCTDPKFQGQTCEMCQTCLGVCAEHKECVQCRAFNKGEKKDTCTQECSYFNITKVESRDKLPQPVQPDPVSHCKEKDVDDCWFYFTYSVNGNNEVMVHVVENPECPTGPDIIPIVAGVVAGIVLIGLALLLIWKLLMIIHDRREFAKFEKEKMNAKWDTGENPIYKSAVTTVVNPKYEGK

With `COCCC[C@]1(C(=O)N[C@@H](Cc2ccc(-c3c(OC)cccc3OC)cc2)C(=O)O)CCCO1`, the clearance in data set [1] came to 81.8 mL/min/kg. Also, the IC50 in data set [2] stood at 0.61 nM; in data set [4], 0.35 nM; in data set [6], 7.8 nM. Also, the bioavailability in data set [3] came out at 1.9%. Besides, in data set [5], the Ratio stood at 22.
For the molecule `COc1ccccc1-c1ccc(C[C@H](NC(=O)[C@@]2(CC(=O)N3CCOCC3)CCCO2)C(=O)O)cc1`, the Ratio in data set [7] is 11. Further, the IC50 in data set [4] was found to be 23.1 nM; in data set [8] it was 11 nM.
In the case of `COCC[C@]1(C(=O)N[C@@H](Cc2ccc(-c3c(OC)cccc3OC)cc2)C(=O)O)CCCO1`, the figures for the IC50 in data set [2], in data set [4] and in data set [6] were 1.99 nM, 0.7 nM and 16.1 nM, respectively. Besides, the Ratio in data set [5] amounted to 40.
Taken in the same sequence, the figures for `COc1ccccc1-c1ccc(C[C@H](NC(=O)[C@@]2(c3ccc(Cl)cc3)CCCO2)C(=O)O)cc1` were 46 nM, 4.09 nM, 275 nM and 67.
As to `COc1cccc(OC)c1-c1ccc(C[C@H](NC(=O)[C@]2(C)OC(C)CC2=O)C(=O)O)cc1` (stereo partly drawn), the IC50 turned out to be 1.32 nM in data set [2], 0.7 nM in data set [4] and 24.5 nM in data set [6]. In addition, in data set [5], the Ratio was 35.
For `COc1cccc(OC)c1-c1ccc(C[C@H](NC(=O)[C@@]2(c3ccc(Cl)c([N+](=O)[O-])c3)CCCO2)C(=O)O)cc1` the same measures were 2.41 nM, 0.47 nM, 45.6 nM and 97.
In the case of `COc1cccc(OC)c1-c1ccc(C[C@H](NC(=O)[C@@]2(C)CCCO2)C(=O)O)cc1`, in data set [1], the clearance stood at 2.9 mL/min/kg. Moreover, the IC50 amounted to 3.61 nM in data set [2], 0.34 nM in data set [4] and 7.09 nM in data set [6]. The molecule also returned a bioavailability in data set [3] of 51%. Further, the Ratio in data set [5] is 21.
Take `COc1ccccc1-c1ccc(C[C@H](NC(=O)[C@@]2(c3ccc(Br)cc3)CCCO2)C(=O)O)cc1`: the IC50 in data set [2] is 53 nM; in data set [4], 3.62 nM; in data set [6], 232 nM. Besides, in data set [5], the Ratio was determined as 64.
Taken in the same sequence, the figures for `COc1ccccc1-c1ccc(C[C@H](NC(=O)[C@@]2(c3ccc(C)c(C)c3)CCCO2)C(=O)O)cc1` were 343 nM, 6.18 nM, 374 nM and 60.
For `COc1cccc(OC)c1-c1ccc(C[C@H](NC(=O)[C@@]2(CCCCN(C)C)CCCO2)C(=O)O)cc1` the same measures were 22.9 nM, 16.3 nM, 226 nM and 14.
